Data on 2 compounds can be found in US8071838B2, “Targeted and regional cellular ablation in zebrafish” (Washington University in St. Louis, priority 2003, dated 2011).

Molecules are shown by their SMILES.

One series has as its target nitroreductase (Escherichia coli, UniProt P38489). The conditions noted are these: substrate for nitroreductase; due to permeability of the cytotoxic metabolite (Bridgewater et al., 1997; Wilson et al., 2002); cited from earlier work.
Series [1] concerns unc-CFP-Nitro expressing cells. The experiment in a line: nitroreductase-based pro-drug conversion and cellular ablation in transient transgenic zebrafish embryos. The format is in vivo. The following applies: metronidazole 10 mM, 5 mM, 2.5 mM in embryo medium; treated from 62 hpf, imaged at 118 hpf; untreated embryos keep both reporters. The method, then:
In order to determine the efficacy of nitroreductase-based pro-drug conversion and subsequent cellular ablation in transient transgenic zebrafish the following experiment was performed: Male and female zebrafish from a ‘transparent’ strain (e.g., harboring the roy mutation) were allowed to mate over egg collection chambers at light onset. Fertilized eggs were collected every 15 minutes and placed in petri dishes containing embryo medium (0.3X Danieau's solution containing 100 units/ml penicillin and 100 μg/ml streptomycin). Eggs were dispensed into a silicone chambers and oriented such that the cell side was facing up. For injections, DNA plasmids were diluted into 1X Danieau's solution to a final concentration of 10 ng/μl. DNA plasmids used for this experiment included: 1) An alpha-1-tubulin promoter driving expression of a Gal4/VP 16 “driver” protein (α-1-tub::Gal4/VP16); 2) A UAS regulated red control fluorescent reporter protein (UAS::DsRed) and; 3) A UAS regulated cyan fluorescent reporter protein (unc-CFP) fused to nitroreductase (UAS::unc-CFP-Nitro, see FIG. 2 and FIG. 3). […] At 28 hpf, injected embryos were screened for equivalent expression of the DsRed reporter (control cells) and the unc-CFP-Nitro ablation/reporter (targeted cells) using standard fluorescence microscopy. […]

Another series relates to zebrafish. The following applies: in vivo; cited from earlier work.

Sequence of nitroreductase (P38489 whole entry): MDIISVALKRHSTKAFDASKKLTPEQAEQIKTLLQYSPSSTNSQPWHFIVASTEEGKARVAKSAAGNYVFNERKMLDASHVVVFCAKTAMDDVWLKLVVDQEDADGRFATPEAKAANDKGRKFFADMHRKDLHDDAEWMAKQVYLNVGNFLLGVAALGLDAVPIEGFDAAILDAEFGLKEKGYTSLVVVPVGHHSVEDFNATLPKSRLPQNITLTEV

Take `NC(=O)c1cc(N2CC2)c([N+](=O)[O-])cc1[N+](=O)[O-]` [CE 1954, 5-(aziridin-1-yl)-2,4-dinitrobenzamide]: the bystander effect entry on nitroreductase was “specifically promote the bystander effect”.

`Cc1ncc([N+](=O)[O-])n1CCO` [metronidazole]: the “ablation of reporter-expressing cells (confocal imaging of unc-CFP-Nitro vs DsRed control reporter)” value in series [1] is recorded as “selective elimination of unc-CFP-Nitro expressing cells”. Also, the general toxicity entry with zebrafish is reported as “no general toxicity”.
